Assay [1] deals with Rattus norvegicus. Description: Compound was evaluated for the intrauterine pressure assayed by intravenous injection into anesthetized rats pretreated with diethylstilbestrol. The format is functional.
Assay [2] concerns Rattus norvegicus. Kind of assay: Compound was evaluated for the vasopressor activity when injected intravenously into anesthetized rats pretreated with phenoxybenzamine. The format is functional.

The source of these data is ChEMBL document CHEMBL1121597, “Synthesis and some pharmacological properties of [8-L-tryptophan]oxytocin” (1980).

Each structure is given as a SMILES string. Positions of bridges follow the written chain, without caps; N, C: chain ends. Residues, ends and D or L forms follow the SMILES beside them.

Consider `CC[C@H](C)[C@@H]1NC(=O)[C@H](Cc2ccc(O)cc2)NC(=O)[C@@H](N)CSSC[C@@H](C(=O)N2CCC[C@H]2C(=O)N[C@@H](Cc2c[nH]c3ccccc23)C(=O)NCC(N)=O)NC(=O)[C@H](CC(N)=O)NC(=O)[C@H](CCC(N)=O)NC1=O` (H-CYIQNCPWG-NH2; disulfide 1-6), for which the Activity in the assay with Rattus norvegicus [1] was 50 U mg-1; in the assay with Rattus norvegicus [2], less than 0.25 U mg-1.
